Data set [1] can be described thus: Highest frequency of moderate liver toxicity observed during clinical trials, expressed as a percentage. [column '% BIOL' in source]. The conditions noted are these: human.
A short description of data set [2]: Highest frequency of acute liver toxicity observed during clinical trials, expressed as a percentage. [column '% AIGUE' in source]. The conditions noted are these: human.
A short description of data set [3]: Times to onset, minimal and maximal, observed in the indexed observations. [column 'DELAI' in source]. The conditions noted are these: human.
The conditions of data set [4]: human, serum.
For data set [5] the following is noted: human, serum. This is another data set of the same source.
For data set [6] the following is noted: human.
For data set [7] the following is noted: human. This is another data set of the same source.
The conditions of data set [8]: human. The source holds these as a separate data set.
The conditions of data set [9]: human, serum, 4383 h.
For data set [10] the following is noted: human. The source holds these as a separate data set.
The conditions of data set [11]: human. The source holds these as a separate data set.
The conditions of data set [12]: human. The source holds these as a separate data set.
The conditions of data set [13]: human. This is another data set of the same source.
For data set [14] the following is noted: human. The source holds these as a separate data set.
The conditions of data set [15]: human. This is another data set of the same source.
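For Hepatotoxicity (association with vascular disease) in this document: count of indexed literature references reporting vascular liver injury in humans, e.g. peliosis hepatitis, hepatic veno-occlusive disease or Budd-Chiari syndrome.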
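For Hepatotoxicity (benign tumour) in this document: value is a count of indexed literature references citing a benign tumour confirmed by histopathology.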
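For Hepatotoxicity (choleostasis) in this document: human cholestatic liver injury, shown by histopathology or by peak ALT or AST elevation over alkaline phosphatase ratio below 2, value counts indexed literature reports.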
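For Hepatotoxicity (chronic liver disease) in this document: chronic liver injury confirmed by histopathology or persistently raised serum aminotransferase activity beyond 6 months, value given as the count of indexed literature references.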
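For Hepatotoxicity (cirrhosis) in this document: value is a count of indexed literature references reporting cirrhosis confirmed by histopathology.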
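For Hepatotoxicity (cytolytic) in this document: human cytolytic liver injury, shown by histopathology or by a ratio above 5 of peak ALT or AST elevation to alkaline phosphatase elevation, value counts indexed references.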
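For Hepatotoxicity (granulomatous hepatitis) in this document: value is a count of indexed literature references reporting granulomatous liver disease confirmed by histopathology.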
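For Hepatotoxicity (malignant tumour) in this document: malignant tumour confirmed by histopathology, value gives the count of indexed literature references reporting it.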
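For Hepatotoxicity (severe hepatitis) in this document: human clinical data: severe hepatitis, meaning potentially life-threatening liver failure or clinically observed cases, the value counts how many indexed literature references report it.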
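For Hepatotoxicity (steatosis) in this document: steatosis confirmed by histopathology, value is the count of indexed references.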

As to `CCC(=O)O[C@@H]1CC(=O)O[C@H](C)C/C=C/C=C/[C@H](O)[C@H](C)C[C@H](CC=O)[C@H](O[C@@H]2O[C@H](C)[C@@H](O[C@H]3C[C@@](C)(O)[C@@H](OC(=O)CC)[C@H](C)O3)[C@H](N(C)C)[C@H]2O)[C@H]1OC` [MIDECAMYCIN], the entries for the “Hepatotoxicity (moderate)” value in data set [1] and in data set [4] were 2.3% and 3, respectively. For the same compound, the results for the “Hepatotoxicity (acute)” value in [2] and in data set [5] were 0% and 1, respectively. Moreover, the “Hepatotoxicity (time to onset)” value in [3] was found to be 1 days. Besides, the “Hepatotoxicity (cytolytic)” value in [6] came to 1. Also, the “Hepatotoxicity (choleostasis)” value in data set [7] was 0. Further, the “Hepatotoxicity (severe hepatitis)” value in [8] was 1. For the same compound, the “Hepatotoxicity (chronic liver disease)” value in data set [9] came to 0. Moreover, in data set [10], the “Hepatotoxicity (cirrhosis)” value is 0. Moreover, the “Hepatotoxicity (granulomatous hepatitis)” value in [11] was 0. Also, the “Hepatotoxicity (association with vascular disease)” value in data set [12] was 0. For the same compound, the “Hepatotoxicity (steatosis)” value in data set [13] came out at 0. Moreover, the “Hepatotoxicity (malignant tumour)” value in data set [14] was determined as 0. Besides, in data set [15], the “Hepatotoxicity (benign tumour)” value amounted to 0.
As for `CC#C[C@]1(O)CC[C@H]2[C@@H]3CCC4=CC(=O)CCC4=C3[C@@H](c3ccc(N(C)C)cc3)C[C@@]21C` [MIFEPRISTONE], the “Hepatotoxicity (moderate)” value in [1] is given as 14.3%; in data set [4], 2. The “Hepatotoxicity (acute)” value in data set [2] was determined as 0%; in data set [5], 1. Besides, in [3], the “Hepatotoxicity (time to onset)” value is listed as 3 months - 5 months. Also, the “Hepatotoxicity (cytolytic)” value in data set [6] worked out at 1. Moreover, the “Hepatotoxicity (choleostasis)” value in data set [7] is 0. Also, in [8], the “Hepatotoxicity (severe hepatitis)” value is 0. Also, the “Hepatotoxicity (chronic liver disease)” value in data set [9] came to 0. For the same compound, in data set [10], the “Hepatotoxicity (cirrhosis)” value is reported as 0. The “Hepatotoxicity (granulomatous hepatitis)” value in data set [11] was 0. Also, the “Hepatotoxicity (association with vascular disease)” value in data set [12] amounted to 0. Also, in data set [13], the “Hepatotoxicity (steatosis)” value worked out at 0. For the same compound, the “Hepatotoxicity (malignant tumour)” value in data set [14] stood at 0. Also, the “Hepatotoxicity (benign tumour)” value in [15] was determined as 0.
For `CCCCCNCC(N)=O` [MILACEMIDE], the figures for the “Hepatotoxicity (moderate)” value in data set [1] and in data set [4] were 70% and 3, respectively. Moreover, the “Hepatotoxicity (acute)” value in data set [2] was determined as 0%; in data set [5], 1. Moreover, the “Hepatotoxicity (time to onset)” value in data set [3] turned out to be 3 weeks - 4 weeks. In addition, the “Hepatotoxicity (cytolytic)” value in data set [6] is given as 1. Also, in [7], the “Hepatotoxicity (choleostasis)” value was 1. The “Hepatotoxicity (severe hepatitis)” value in data set [8] amounted to 0. Also, the “Hepatotoxicity (chronic liver disease)” value in data set [9] came out at 0. In data set [10], the “Hepatotoxicity (cirrhosis)” value is on record as 0. Besides, the “Hepatotoxicity (granulomatous hepatitis)” value in data set [11] is recorded as 0. For the same compound, the “Hepatotoxicity (association with vascular disease)” value in [12] was 0. Moreover, in data set [13], the “Hepatotoxicity (steatosis)” value is given as 0. In data set [14], the “Hepatotoxicity (malignant tumour)” value turned out to be 0. In addition, in data set [15], the “Hepatotoxicity (benign tumour)” value turned out to be 0.
For `CCCCCCCCCCCCCCCCOP(=O)([O-])OCC[N+](C)(C)C` [MILTEFOSINE], the “Hepatotoxicity (moderate)” value was found to be 55% in data set [1] and 5 in data set [4]. Also, the “Hepatotoxicity (acute)” value in [2] was 2.2%; in [5] it was 3. The “Hepatotoxicity (time to onset)” value in data set [3] came out at 2 weeks. Besides, the “Hepatotoxicity (cytolytic)” value in data set [6] was found to be 3. In addition, the “Hepatotoxicity (choleostasis)” value in [7] came to 0. Also, in data set [8], the “Hepatotoxicity (severe hepatitis)” value is reported as 0. The “Hepatotoxicity (chronic liver disease)” value in data set [9] is 0. For the same compound, in data set [10], the “Hepatotoxicity (cirrhosis)” value worked out at 0. For the same compound, the “Hepatotoxicity (granulomatous hepatitis)” value in data set [11] stood at 0. The “Hepatotoxicity (association with vascular disease)” value in data set [12] is 0. In addition, the “Hepatotoxicity (steatosis)” value in data set [13] was found to be 0. The “Hepatotoxicity (malignant tumour)” value in data set [14] was determined as 0. The “Hepatotoxicity (benign tumour)” value in [15] was 0.
Turning to `CN1CCN2c3ncccc3Cc3ccccc3C2C1` (stereo not given) [MIRTAZAPINE], the “Hepatotoxicity (moderate)” value is listed as 1% in [1] and 2 in data set [4]. In addition, the entries for the “Hepatotoxicity (acute)” value in [2] and in [5] were 0% and 1, respectively. The “Hepatotoxicity (time to onset)” value in data set [3] was 1 year - 3 years. In addition, the “Hepatotoxicity (cytolytic)” value in [6] is given as 1. Further, the “Hepatotoxicity (choleostasis)” value in [7] was 0. For the same compound, the “Hepatotoxicity (severe hepatitis)” value in data set [8] worked out at 1. Also, in data set [9], the “Hepatotoxicity (chronic liver disease)” value amounted to 0. The “Hepatotoxicity (cirrhosis)” value in [10] is recorded as 0. The “Hepatotoxicity (granulomatous hepatitis)” value in [11] is recorded as 0. The “Hepatotoxicity (association with vascular disease)” value in [12] is reported as 0. The “Hepatotoxicity (steatosis)” value in [13] was determined as 1. Moreover, in [14], the “Hepatotoxicity (malignant tumour)” value stood at 0. The “Hepatotoxicity (benign tumour)” value in [15] came out at 0.
With `CN(c1nccc(=O)[nH]1)C1CCN(c2nc3ccccc3n2Cc2ccc(F)cc2)CC1` [MIZOLASTINE], the “Hepatotoxicity (moderate)” value in data set [1] is listed as 0%; in data set [4], 0. The “Hepatotoxicity (acute)” value in data set [2] is listed as 0%; in [5] it was 2. Also, in [3], the “Hepatotoxicity (time to onset)” value stood at 2 months. Also, the “Hepatotoxicity (cytolytic)” value in data set [6] is 2. In addition, the “Hepatotoxicity (choleostasis)” value in data set [7] was 0. In addition, in [8], the “Hepatotoxicity (severe hepatitis)” value came to 0. Besides, the “Hepatotoxicity (chronic liver disease)” value in data set [9] was found to be 0. Also, the “Hepatotoxicity (cirrhosis)” value in data set [10] turned out to be 0. The “Hepatotoxicity (granulomatous hepatitis)” value in [11] turned out to be 0. Also, the “Hepatotoxicity (association with vascular disease)” value in data set [12] was 0. Moreover, the “Hepatotoxicity (steatosis)” value in data set [13] came to 0. Moreover, in data set [14], the “Hepatotoxicity (malignant tumour)” value came to 0. Moreover, the “Hepatotoxicity (benign tumour)” value in data set [15] came to 0.
As to `O=C(NCCN1CCOCC1)c1ccc(Cl)cc1` [MOCLOBEMIDE], the results for the “Hepatotoxicity (moderate)” value in data set [1] and in data set [4] were 0% and 1, respectively. Also, the “Hepatotoxicity (acute)” value is on record as 0% in data set [2] and 1 in [5]. For the same compound, the “Hepatotoxicity (time to onset)” value in data set [3] was 1 week - 9 days. In addition, the “Hepatotoxicity (cytolytic)” value in data set [6] is on record as 0. Besides, the “Hepatotoxicity (choleostasis)” value in data set [7] turned out to be 1. Moreover, the “Hepatotoxicity (severe hepatitis)” value in data set [8] is given as 1. The “Hepatotoxicity (chronic liver disease)” value in data set [9] was 0. Also, in [10], the “Hepatotoxicity (cirrhosis)” value is recorded as 0. Also, in data set [11], the “Hepatotoxicity (granulomatous hepatitis)” value is on record as 0. Further, in [12], the “Hepatotoxicity (association with vascular disease)” value turned out to be 0. The “Hepatotoxicity (steatosis)” value in data set [13] amounted to 0. The “Hepatotoxicity (malignant tumour)” value in data set [14] is listed as 0. Also, in data set [15], the “Hepatotoxicity (benign tumour)” value was 0.
Consider `CCCCC1C(=O)NN(c2ccccc2)C1=O` (stereo not given) [MOFEBUTAZONE], for which the “Hepatotoxicity (moderate)” value was 0% in data set [1] and 0 in data set [4]. The results for the “Hepatotoxicity (acute)” value in data set [2] and in data set [5] were 0% and 1, respectively. The “Hepatotoxicity (time to onset)” value in data set [3] is recorded as 2 years. Further, the “Hepatotoxicity (cytolytic)” value in data set [6] stood at 1. The “Hepatotoxicity (choleostasis)” value in data set [7] stood at 0. For the same compound, the “Hepatotoxicity (severe hepatitis)” value in data set [8] is 0. In addition, the “Hepatotoxicity (chronic liver disease)” value in data set [9] was 0. For the same compound, the “Hepatotoxicity (cirrhosis)” value in [10] was 1. Besides, the “Hepatotoxicity (granulomatous hepatitis)” value in [11] is reported as 0. Moreover, the “Hepatotoxicity (association with vascular disease)” value in data set [12] was found to be 0. Also, the “Hepatotoxicity (steatosis)” value in data set [13] is reported as 0. For the same compound, the “Hepatotoxicity (malignant tumour)” value in data set [14] was 0. The “Hepatotoxicity (benign tumour)” value in [15] came out at 0.

(Values after ChEMBL document CHEMBL3137667, “[Drug-induced liver injury; fourteenth updated edition of the bibliographic database of liver injuries and related drugs]” (Gastroenterol Clin Biol, 2004).)
